The values that follow come from US9687529B2, “Method of controlling coagulation” (Duke University, priority 2011, dated 2017).

For data set [1], the system named is human blood. The data set can be described thus: Ex vivo extracorporeal oxygenator minicircuit with ACT+ monitoring. Particulars: human blood in ex vivo minicircuit; average donor baseline 115 seconds; FIG. 25 doses: UFH 5 U/mL, 9.3T 1 μM, 11F7T 2 μM, R9D-14T 5 μM, 11F7T 0.5 μM+R9D-14T 5 μM. As to the method:
The extracorporeal minicircuit consisted of a sample line, custom-designed 8 mL Plexiglas® venous reservoir, a mechanical roller pump (MasterFlex®; Cole-Parmer Instrument Co., Vernon Hills, Ill.), and a custom-designed small-volume oxygenator that are all connected by MasterFlex precision silicone tubing (Cole-Parmer Instrument Co.) (de Lange et al, Br J Anaesth 99:177-83 (2007), de Lange et al, J Cardiothorac Surg 3:51 (2008). The 4 mL priming volume oxygenator is comprised of two Plexiglas® shells (12.8 cm×12.8 cm×2.7 cm) that cover a disposable three layer artificial diffusion membrane comprised of hollow polypropylene fibers glued together in a crosswise fashion. The surface area available for gas exchange is 558 cm^2. To prevent heat loss, one of the shells has an integrated heat exchanger, and the temperature was maintained at approximately 33° C. with a circulating water bath system (Gaymar Industries, Orchard Park, N.Y.). A MEAS reusable temperature probe (Model 451, Measurement Specialties Inc., Dayton, Ohio) was inserted into the reservoir to continuously measure the temperature, and an in-line flow probe (2N806 flow probe and T208 volume flowmeter; Transonics Systems, Inc., Ithaca, N.Y.) was used to continuously measure the blood flow. The circuit blood O2 level was maintained at 95% and the CO2 was maintained at 5%.
The minicircuit was primed with phosphate buffered saline (PBS) at a flow rate of 50 mL/min for approximately 30 min. Blood was drawn from healthy, consented volunteers and anticoagulated with 3.2% sodium citrate. Approximately 25 mL of citrated blood was incubated with 500 μL of anticoagulant (i.e., UFH or aptamer) at 37° C. for 5 min. The PBS was drained from the minicircuit, and the blood was added and circulated at a rate of 50 mL/min with 95% O2/5% CO2 at approximately 33° C. […] The venous blood gases were analyzed with a GEM Premier 3000 blood gas/electrolyte analyzer (model 5700; Instrumentation Laboratories, Inc, Lexington, Mass.) to determine the hematocrit, CaCl2, O2, and CO2 levels. […]

For data set [2], the system named is clot formation in normal human platelet poor plasma. The data set can be described thus: Prothrombin time (PT) plasma clotting assay. Particulars: for increase of PT clotting time: 4 μM aptamer. Type of data set: biochemical. The protocol:
The activated partial thromboplastin time (aPTT) and prothrombin time (PT) assays were performed on a model ST4 mechanical coagulometer (Diagnostica Stago, Parsippany, N.J.) as previously described (Bompiani et al, J Thromb Haemost 10:870-80 (2012)). For the aPTT, 50 μL of normal human platelet poor plasma (PPP) was incubated with 50 μL TriniClot aPTT S (Trinity BioTech, Bray, Co Wicklow, Ireland) at 37° C. for 5 min. Aptamer(s) (5 μL) was added, and the mixture was incubated at 37° C. for another 5 min, and CaCl2 (50 μL) was added to initiate the assay. For the PT, 50 μL of normal human PPP was incubated with 5 μL of aptamer(s) at 37° C. for 5 min. TriniClot PT Excel reagent (Trinity BioTech, Bray, Co Wicklow, Ireland) (100 μL) was added to initiate the reaction. Assays with a combination of two aptamers contain an equimolar concentration of each individual aptamer, and the data shown are the total RNA concentration.
To compare the anticoagulant effect of these four aptamers, dose-response titrations were performed in several clinical plasma-based clotting assays. The activated partial thromboplastin time (aPTT) and prothrombin time (PT) are plasma clotting assays that are clinically used to probe for abnormalities in the intrinsic and extrinsic coagulation pathways, respectively (Van Cott et al, editors. Jacobs & DeMott laboratory test handbook. 5th ed. Hudson Ohio: Lexi-Comp. p. 327-58 (2001)). These relatively simple assays measure the time until clot formation in platelet poor plasma (PPP) in response to either robust tissue factor (TF), or contact stimulation via negatively charged surfaces (i.e., silica, kaolin, celite). […] At high concentrations, the prothrombin aptamer (R9D-14T) was the most robust anticoagulant and inhibited greater than 96% of prothrombin activity in the aPTT and PT. At 4 μM, R9D-14T increased the aPTT clotting time approximately 18-fold and the PT clotting time greater than 80-fold (exceeded the assay limit of 999 sec). […] At the same dose, the FIXa aptamer (9.3T) inhibited greater than 99% of FIX activity and increased the aPTT clotting time approximately 5.5-fold, while the FVIIa aptamer (7S-1) increased the PT clotting time 3-fold and inhibited greater than 99% of FVII activity (FIGS. 20A and 20B).

As to “9.3T: FIXa aptamer, 2'-fluoropyrimidine modified RNA, SEQ ID NO: 1 (AUGGGGACUAUACCGCGUAAUGCUGCCUCCCCAU; 2'-fluoro at CU, RNA at AG, backbone not given here) [Aptamer 9.3T]”, the “ACT+ maximal clotting time” value in data set [1] is “had no effect”.

Regarding “11F7T: FXa aptamer, 2'-fluoropyrimidine modified RNA, SEQ ID NO: 2 (GAGAGCCCCAGCGAGAUAAUACUUGGCCCCGCUCUU; 2'-fluoro at CU, RNA at AG, backbone not given here) [Aptamer 11F7T]”, the “increase of PT clotting time” value in data set [2] is recorded as “approximately 8 fold”. The “ACT+ maximal clotting time” value in data set [1] amounted to 213 s.

Regarding “R9D-14T: prothrombin/thrombin aptamer, 58-base truncation of RNA9D-14, SEQ ID NO: 3 (GGCGGTCGATCACACAGTTCAAACGTAATAAGCCAATGTACGAGGCAGACGACTCGCC; 2'-fluoro at CT, RNA at AG, backbone and T or U not given here) [Aptamer R9D-14T]”, the “increase of PT clotting time” value in data set [2] was “greater than 80 fold”. Moreover, the PT clotting time in data set [2] (4 μM, assay limit 999 sec) is over 999 s. Besides, the prothrombin activity inhibited entry in data set [2] (PT, high concentrations) is “greater than 96%”. Moreover, in data set [1], the “ACT+ maximal clotting time” value is 365 s.
